# Results as given in patent US20230203095A1, “BIOLOGICAL PEPTIDE FOR TREATING LUNG DISEASES AND APPLICATION THEREOF” (SHANGHAI INSTITUTE OF PHARMACEUTICAL INDUSTRY CO., LTD., priority 2019, published 2023).
# Where “and” joins values, the source holds several entries; their conditions need not be identical. Equal values may be shown once. Read-outs that look alike come from different tables or passages of the source. Peptide text beside a SMILES is read from it. * marks the point of attachment. X1 = CC(=O)N[C@H]1C(*)O[C@H](CO)[C@@H](O)[C@@H]1O
# How the values were obtained:
# [1] = tested on: OVA-induced asthma model mice; experiment: Lung pathology (H&E) of OVA-induced asthma model mice; assay type: in vivo, BALB/c mice; settings: after 28 days
# Protocol: (§1) The first batch: mice were divided into groups, 10 mice in each group, namely: blank control group (normal saline), model group (OVA, 20 ug/mouse), SP peptide group (administered dose of 175 µg/kg body weight/day, 350 µg/kg body weight/day, respectively), SIPI-D00 peptide group (administered dose of 175 µg/kg body weight/day, 350 µg/kg body weight/day), and dexamethasone group (administered dose of 2 mg/kg body weight/day).
# (§2) Mice in the model group, SP peptide group, SIPI-D00 peptide group and dexamethasone group were sensitized by intraperitoneal injection of OVA (20 µg OVA/mice) on day 0, 7, and 14, and challenged by aerosol administration of OVA (once a day for 5 consecutive days) on day 21-25 to construct asthmatic model animals. Mice in the model group were given normal saline on days 21-28; mice in different doses of SP peptide group and SIPI-D00 peptide group were injected subcutaneously with different doses of SP and SIPI-D00 on days 19-28; mice in dexamethasone group were injected intraperitoneally with 2 mg/kg/day dexamethasone on days 21-28. At the same time, 10 mice in the blank control group were fed normally from day 0 to day 28 without any treatment, and were given normal saline as a blank control.
# After 28 days, the mouse lung tissue was taken out, fixed in 4% formaldehyde, embedded in paraffin, sectioned, and stained with H&E for pathological observation.
# as §1, with “ug/mice), and” for “ug/mouse),”, “SIPI-G5” for “SIPI-D00”, “weight/day),” for “weight/day), and”
# (§3) At the same time, 10 mice in the blank control group were fed normally from day 0 to day 28 without any treatment, and were given normal saline as a blank control.
# serum IgE = experiment: Serum IgE level in OVA-induced allergic asthma model mice; assay type: in vivo, BALB/c mice
# Protocol: as §1
# OVA for sensitization was dissolved in sterile PBS solution at a final concentration of 0.2 mg/mL, then an equal volume of aluminum hydroxide adjuvant was added. After shaking for 30 minutes, each mouse was intraperitoneally injected with 0.2 mL (20 µg OVA per mouse).
# 2% OVA solution was prepared in sterile PBS. The 2% OVA was nebulized with a nebulizer, and the mice were placed in the nebulizer inhalation box for 30 minutes per day.
# According to the dosage, SP peptide and SIPI-D00 were dissolved in normal saline respectively, and administered by subcutaneous administration on the back according to the body weight of the animals.
# as §2
# After 28 days, blood was collected from the inner canthus of the mouse, and the serum was collected, and the IgE level in the serum was measured with an ELISA kit. […]
# as §3
# [2] = tested on: OVA-induced asthma model mice; experiment: Lung function (inspiratory airway resistance, lung compliance) in OVA-induced allergic asthma model mice; assay type: in vivo, BALB/c mice; settings: for Inspiratory airway resistance / Lung compliance: 2 mg/kg/day i.p., n=10
# Protocol: The second batch: mice were divided into groups, 10 mice in each group, namely: blank control group (normal saline), model group (OVA, dose of 20 ug/mouse), SP peptide group (administered dose of 87.5 µg/kg body weight/ day, 175 µg/kg body weight/day, 350 µg/kg body weight/day, respectively), SIPI-D00 peptide group (administered dose of 87.5 µg/kg body weight/day, 175 µg/kg body weight/day, 350 µg/kg body weight/day), and Dexamethasone group (administered dose of 2 mg/kg body weight/day).
# as §2
# On the 28th day, the mice were anesthetized with tracheal intubation and jugular vein intubation, and the inspiratory airway resistance and lung compliance were measured in each group of animals. Each animal was given fold increasing amounts of methacholine via the jugular vein: 0.025 mg/kg, 0.05 mg/kg, 0.1 mg/kg, 0.2 mg/kg. After each dose was given, the lung compliance curve was recorded continuously for 5 minutes, and the inspiratory airway resistance and lung compliance were calculated. […]
# as §3
# [3] = Stability of each 7-peptide compound in rat whole blood; assay type: in vitro ADME; settings: for stability in whole blood: compared with SP peptide; for recovery: rat whole blood, 37° C., 1000 ng/mL, read-out: Recovery rate (%) M±SD
# Protocol: Preparation of the test product: SP and SIPI-D00 were dissolved and diluted with an appropriate amount of 50% acetonitrile water containing 0.1% formic acid to obtain a working solution with a concentration of 200 µg/mL.
# • 1) Fresh rat whole blood was added to the EP tube, and shaken gently to mix well; • 2) The EP tube was pre-incubated in a 37° C. water bath for 5 minutes; • 3) Each compound was added to start the reaction and continued to incubate at 37° C.; • 4) 50 µL sample was taken from the sample tube at 0, 2 min, 5 min, 10 min, 30 min, and 60 min, respectively, into the stop tube, 50 µL of ice-cold 7% perchloric acid was added, and shaken to stop the reaction; • 5) Sample was centrifuged at 13000 r/min for 10 min, 75 µL supernatant was aspirated, 60 µL1.25% ammonia water was added and mixed well. After filtered with […] microporous membrane, 20 µL sample was taken for LC-MS/MS analysis.
# [4] = tested on: ConA-stimulated mouse splenocytes; experiment: Secretion of IL-4 from mouse splenocytes stimulated by ConA (ELISA); assay type: cell-based, BALB/C mice; settings: for IL-4 levels of polypeptides: ConA 5 µg/mL, 24 h
# Protocol: (§4) Three BALB/C mice were sacrificed by cervical dislocation after anesthesia. Then mice were immersed in 75% ethanol for 5 minutes. After dissection and spleen extraction, spleen lymphocytes were prepared. […] Different concentrations of test substances were added to each well, and duplicate wells were set for each concentration, and the final concentration of ConA was 5 µg/mL. The plate was incubated in a 37° C. 5% CO2 incubator for 24 h, the drug-containing cell suspension was aspirated from each well, then centrifuged at 200 g for 15 min at 4° C. The supernatant was taken, and mouse IL-4 Elisa kit was used to detect IL- 4 content.
# as §4, with “each concentration was” for “duplicate wells were”, “up as triple wells,” for “for each concentration,”, “kit (mouse IL-4 Elisa kit)” for “kit”
# [5] = Plasma drug concentrations and pharmacokinetics after a single subcutaneous injection of SP peptide or SIPI-D00 peptide in SD rats; assay type: in vivo
# Protocol: Route: Single back subcutaneous injection;
# Dosage of the drug: SP peptide and SIPI-D00 peptide were prepared into 3.33 mg/mL solution with normal saline, the dosage of SP peptide by back subcutaneous injection was 10 mg/kg body weight, and the dosage of SIPI-D00 peptide by back subcutaneous injection was 5 mg/kg body weight. […]
# COPD model rats = experiment: Lung function (200 ms pulmonary ventilation) in smoking + LPS COPD model rats; assay type: in vivo, SD rats; settings: 5 mg/kg body weight/day, aerosol, once a day for 4 weeks
compound,measurement,setting,value
"C[C@@H]1C[C@H]2[C@@H]3CCC4=CC(=O)C=C[C@]4(C)[C@@]3(F)[C@@H](O)C[C@]2(C)[C@@]1(O)C(=O)COP(=O)([O-])[O-].[Na+].[Na+] [Dexamethasone, dexamethasone sodium phosphate, reference compound]","lung pathology, H&E",[1]; positive control group (dexamethasone 2 mg/kg body weight/day),"a small amount of inflammatory cell infiltration in the lungs, but the alveolar cavity is seriously damaged"
same,Serum IgE level (OD450),"serum IgE; 2 mg/kg/day intraperitoneal, days 21-28, n=10",0.285 ± 0.041 OD450
same,Inspiratory airway resistance,[2]; methacholine 0 mg/kg,1.00±0.00
same,Lung compliance,[2]; methacholine 0 mg/kg,1.00±0.00
same,Inspiratory airway resistance,[2]; methacholine 0.025 mg/kg,1.06±0.08
same,Lung compliance,[2]; methacholine 0.025 mg/kg,0.97±0.10
same,Inspiratory airway resistance,[2]; methacholine 0.05 mg/kg,1.15±0.14
same,Lung compliance,[2]; methacholine 0.05 mg/kg,0.89±0.14
same,Inspiratory airway resistance,[2]; methacholine 0.1 mg/kg,1.20±0.21
same,Lung compliance,[2]; methacholine 0.1 mg/kg,0.87±0.22
same,Inspiratory airway resistance,[2]; methacholine 0.2 mg/kg,1.23±0.17
same,Lung compliance,[2]; methacholine 0.2 mg/kg,0.83±0.14
same,inspiratory phase resistance (in words),[2]; compared with the model group,significantly reduced
same,lung compliance (in words),[2]; compared with the model group,significantly increased
"CC(=O)N[C@H]1C(OC[C@H](NC(=O)[C@@H](NC(=O)[C@H](Cc2ccc(O)cc2)NC(=O)[C@@H](NC(=O)[C@H](CCC(N)=O)NC(=O)CN)[C@@H](C)OC2O[C@H](CO)[C@@H](O)[C@H](O)[C@H]2NC(C)=O)[C@@H](C)OC2O[C@H](CO)[C@@H](O)[C@H](O)[C@H]2NC(C)=O)C(=O)NCC(=O)O)O[C@H](CO)[C@@H](O)[C@@H]1O (stereo partly shown) [SIPI-G4, GQT(Glc)YT(Glc)S(Glc)G] (H-GQT(X1)YT(X1)S(X1)G-OH)",stability in whole blood,[3],significantly higher than that of SP peptide
same,recovery,[3]; incubation time 0 min,100%
same,recovery,[3]; incubation time 2 min,94.6 ± 8.5%
same,recovery,[3]; incubation time 5 min,87.3 ± 5.6%
same,recovery,[3]; incubation time 10 min,87.2 ± 5.9%
same,recovery,[3]; incubation time 30 min,77.7 ± 8.1%
same,recovery,[3]; incubation time 60 min,77.1 ± 2.3%
"H-GQTYTSG-OH [SP, GQTYTSG, reference compound]","lung pathology, H&E",[1]; high-dose group (350 µg/kg body weight/day),some inflammatory cells are found in the airway mucosa
same,"lung pathology, H&E",[1]; low-dose group (175 µg/kg body weight/day),some inflammatory cells are found in the airway mucosa
same,Serum IgE level (OD450),"serum IgE; 175 ug/kg/day subcutaneous, days 19-28, n=10",0.634 ± 0.078 OD450 and 0.634 + OD450
same,Serum IgE level (OD450),"serum IgE; 350 ug/kg/day subcutaneous, days 19-28, n=10",0.595 ± 0.041 OD450 and 0.595 + OD450
same,Inhibitory rate of polypeptide on IL-4 secretion,[4]; peptide concentration 1 µg/mL,33.90%
same,IL-4 levels of polypeptides,[4]; peptide concentration 1 µg/mL,14.28 ± 0.51 pg/mL
same,Inhibitory rate of polypeptide on IL-4 secretion,[4]; peptide concentration 3 µg/mL,42.51%
same,IL-4 levels of polypeptides,[4]; peptide concentration 3 µg/mL,12.42 ± 0.34 pg/mL
same,Inhibitory rate of polypeptide on IL-4 secretion,[4]; peptide concentration 10 µg/mL,50.21%
same,IL-4 levels of polypeptides,[4]; peptide concentration 10 µg/mL,10.76 ± 2.55 pg/mL
same,Inhibitory rate of polypeptide on IL-4 secretion,[4]; peptide concentration 30 µg/mL,52.15%
same,IL-4 levels of polypeptides,[4]; peptide concentration 30 µg/mL,10.34 ± 0.27 pg/mL
same,Plasma concentration,"[5]; SP peptide 10 mg/kg s.c., SD rats, time 0 min, parallels 1-4",0 ng/mL
same,level at 0.5 min,"[5]; male, SD, rat, plasma, sc, 10 mg/kg, SP peptide 10 mg/kg s.c., SD rats, time 0.5 min, parallels 1-4, read-out: Plasma concentration",74.2 ng/mL
same,AUC(0-inf),"[5]; rat, in vivo, sc, 10 mg/kg",11.9 ng·h/mL
same,AUC(0-t),"[5]; rat, in vivo, sc, 10 mg/kg",11.9 ng·h/mL
same,Cmax,"[5]; rat, in vivo, sc, 10 mg/kg",210 ± 21.6 ng/mL
same,half-life,"[5]; rat, in vivo, sc, 10 mg/kg",8.65 ± 1.79 min
same,recovery,[3]; incubation time 0 min,100%
same,recovery,[3]; incubation time 2 min,64.1 ± 7.6%
same,recovery,[3]; incubation time 5 min,41.3 ± 6.8%
same,recovery,[3]; incubation time 10 min,28.5 ± 0.9%
same,recovery,[3]; incubation time 30 min,4.93 ± 0.7%
same,recovery,[3]; incubation time 60 min,1.67 ± 0.5%
"CC(=O)N[C@H]1C(O[C@H](C)[C@H](NC(=O)[C@H](Cc2ccc(O)cc2)NC(=O)[C@@H](NC(=O)[C@H](CCC(N)=O)NC(=O)CN)[C@@H](C)OC2O[C@H](CO)[C@@H](O)[C@H](O)[C@H]2NC(C)=O)C(=O)N[C@@H](CO)C(=O)NCC(=O)O)O[C@H](CO)[C@@H](O)[C@@H]1O (stereo partly shown) [SIPI-G8, GQT(Glc)YT(Glc)SG] (H-GQT(X1)YT(X1)SG-OH)",stability in whole blood,[3],significantly higher than that of SP peptide
same,recovery,[3]; incubation time 0 min,100%
same,recovery,[3]; incubation time 2 min,83.6 ± 8.1%
same,recovery,[3]; incubation time 5 min,83.2 ± 6.1%
same,recovery,[3]; incubation time 10 min,80.7 ± 2.3%
same,recovery,[3]; incubation time 30 min,71.2 ± 6.3%
same,recovery,[3]; incubation time 60 min,58.6 ± 4.8%
"CC(=O)N[C@H]1C(O[C@H](C)[C@H](NC(=O)[C@H](CCC(N)=O)NC(=O)CN)C(=O)N[C@@H](Cc2ccc(O)cc2)C(=O)N[C@H](C(=O)N[C@@H](CO)C(=O)NCC(=O)O)[C@@H](C)O)O[C@H](CO)[C@@H](O)[C@@H]1O (stereo partly shown) [SIPI-G6, GQT(Glc)YTSG] (H-GQT(X1)YTSG-OH)",stability in whole blood,[3],significantly higher than that of SP peptide
same,recovery,[3]; incubation time 0 min,100%
same,recovery,[3]; incubation time 2 min,86.1 ± 1.8%
same,recovery,[3]; incubation time 5 min,81.3 ± 8.3%
same,recovery,[3]; incubation time 10 min,73.4 ± 2.6%
same,recovery,[3]; incubation time 30 min,59.7 ± 8.8%
same,recovery,[3]; incubation time 60 min,51.1 ± 4.9%
"CCCC1O[C@@H]2C[C@H]3[C@@H]4CCC5=CC(=O)C=C[C@]5(C)[C@H]4[C@@H](O)C[C@]3(C)[C@]2(C(=O)CO)O1 (stereo partly shown) [Budesonide, budesonide]",200 ms pulmonary ventilation,COPD model rats,77.17 ± 11.20 mL
same,Percentage of 200 ms pulmonary ventilation (%),COPD model rats,465.8±77.8 %
